According to patent US10392428B2, “GLP-1 derivatives and uses thereof” (Novo Nordisk A/S, priority 2014, dated 2019):
Non-standard residues stand in square brackets, D forms with d. Residues, ends and D or L forms follow the SMILES beside them. Groups on a side chain read outwards from the residue. *: point of attachment. X2 = O=C(O)CCCCCCCCCCCCCCCCCCC(=O)NC[C@H]1CC[C@H](C(=O)N[C@@H](CCC(=O)NCCCC[C@H](NC(=O)CC[C@H](NC(=O)[C@H]2CC[C@H](CNC(=O)CCCCCCCCCCCCCCCCCCC(=O)O)CC2)C(=O)O)C(=O)*)C(=O)O)CC1; Desaminohistidyl = O=C(CCc1c[nH]cn1)*; AEEA = NCCOCCOCC(=O)O; Aib = CC(C)(N)C(=O)O

How the values were obtained:
[1] = biological target: T1, human GLP-1 receptor (Homo sapiens, UniProt P43220); assay: GLP-1 receptor binding: competitive binding assay (125I-GLP-1, SPA) on isolated membranes at low and high HSA
T1 construct: expressed in transfected cells; host or cells: membrane preparation from BHK cells, clone FCW467-12A (parent line BHKTS13)
Experimental: The purpose of this example is to test the receptor binding of the GLP-1 derivatives in vitro. The receptor binding is a measure of affinity of a derivative for the human GLP-1 receptor.
Each derivative is added in a series of concentrations to isolated membranes containing the human GLP-1 receptor and displacement of the labelled ligand is monitored. The receptor binding is reported as the concentration at which half of the labelled ligand is displaced from the receptor, the IC50 value.
Buffer 1 consisted of 20 mM Na-HEPES plus 10 mM EDTA and pH was adjusted to 7.4. Buffer 2 consisted of 20 mM Na-HEPES plus 0.1 mM EDTA and pH was adjusted to 7.4. Assay buffer consisted of 50 mM HEPES supplemented with 5 mM EGTA, 5 mM MgCl2, 0.005% Tween 20 and pH was adjusted to 7.4. An 8% albumin stock consisted of HSA dissolved at 8% (w/v) in assay buffer. An 0.02% albumin stock consisted of HSA dissolved at 0.02% (w/v) in assay buffer.
The cells express the human GLP-1 receptor.
The cells were grown at 5% CO2 in DMEM, 10% fetal calf serum, 1% Pen/Strep (Penicillin/Streptomycin) and 1.0 mg/ml of the selection marker G418.
To make a membrane preparation the cells were grown to approximately 80% confluence. The cells were washed twice in phosphate-buffered saline and harvested. The cells were pelleted using a brief centrifugation and the cell pellet was kept on ice. […] The homogenate was centrifuged for 15 minutes. The pellet was re-suspended (homogenised) in 10 ml buffer 2 and centrifuged. This step was repeated once more. The resulting pellet was re-suspended in buffer 2 and the protein concentration was determined. The membranes were aliquoted and stored at minus 80° C.
For the receptor binding assay in the presence of low HSA (0.005%) 50 μl of the assay buffer was added to each well of an assay plate.
For the receptor binding assay in the presence of high HSA (2%) 50 μl of the 8% albumin stock was added to each well of an assay plate.
Cell membrane aliquots were thawed and diluted to their working concentration. Fifty μl were added to each well in the assay plate.
WGA SPA beads were suspended in assay buffer at 20 mg/ml. The suspension was diluted to 10 mg/ml in assay buffer just prior to addition to the assay plate. Fifty μl were added to each well in the assay plate.
A 25 μl aliquot was reserved for measuring total counts/well.
The assay plate was incubated for 2 h at 30° C.
The assay plate was centrifuged for 10 min.
The assay plate was read in a Packard TopCount NXT instrument.
The data from the TopCount instrument were transferred to Graph Pad Prism software. Individual replicates were analysed using non-linear regression. IC50 values were calculated by the software and reported in nM. The reported values are averages of all of the measured values for each compound.

[2] = biological target: T1, human GLP-1 receptor; assay: In vitro potency: CRE luciferase reporter gene assay in BHK cells expressing the human GLP-1 receptor; assay type: cell-based; details: whole cell reporter gene assay, 3 h incubation, average of at least two replicates
Experimental: The purpose of this example is to test the activity, or potency, of the GLP-1 derivatives in vitro. The in vitro potency is the measure of human GLP-1 receptor activation in a whole cell assay.
In vitro potency was determined by measuring the response of the human GLP-1 receptor in a reporter gene assay. The assay was performed in a stably transfected BHK cell line that expresses the human GLP-1 receptor and contains the DNA for the cAMP response element (CRE) coupled to a promoter and the gene for firefly luciferase (CRE luciferase). When the human GLP-1 receptor is activated it results in the production of cAMP, which in turn results in the luciferase protein being expressed. When assay incubation is completed the luciferase substrate (luciferin) is added and the enzyme converts luciferin to oxyluciferin to produce bioluminescence. The luminescence is measured as the readout for the assay.
The cells were cultured at 5% CO2 in cell culture medium. They were aliquoted and stored in liquid nitrogen. Before each assay an aliquot was taken up and washed twice in PBS before being suspended at the desired concentration in the assay specific buffer.
Assay medium consisted of DMEM w/o phenol red, 10 mM Hepes and 1χ Glutamax. The assay buffer consisted of 2% ovalbumin and 0.2% Pluronic F-68 in assay medium.
1) Cell stocks were thawed in a 37° C. water bath.
2) Cells were washed three times in PBS.
3) Cells were counted and adjusted to 5×10^3 cells/50 μl (1×10^5 cells/ml) in assay medium. A 50 μl aliquot of cells was transferred to each well in the assay plate.
4) Stocks of the test compounds and reference compounds were diluted to a concentration of 0.2 μM in assay buffer. […] 8) A 100 μl aliquot of steadylite plus reagent was added to each well of the assay plate. […] 10) Each assay plate was read in a BioTek Synergy 2 Multi-Mode Reader.
The data from the BioTek Synergy 2 Multi-Mode Reader were transferred to GraphPad Prism software. […]
A minimum of two replicates was measured for each sample. The reported EC50 values are averages of all of the measured values for each compound.

[3] = Pharmacokinetic study in minipigs (i.v.); details: male, Göttingen, minipig, in vivo, iv; minipigs, i.v., 15 nmol/kg; harmonic mean; read-out: Terminal half-live (converted)
Experimental: The derivatives of Examples 12, 14, and 15 were dosed 2 nmol/kg. The derivatives of Examples 1 and 2 were dosed 15 nmol/kg.

[4] = High HSA IC50 (nM), high HSA (2.0% final assay concentration)
[5] = Low HSA IC50 (nM), low HSA (max. 0.001% final assay concentration)

T1 sequence (P43220 24-463): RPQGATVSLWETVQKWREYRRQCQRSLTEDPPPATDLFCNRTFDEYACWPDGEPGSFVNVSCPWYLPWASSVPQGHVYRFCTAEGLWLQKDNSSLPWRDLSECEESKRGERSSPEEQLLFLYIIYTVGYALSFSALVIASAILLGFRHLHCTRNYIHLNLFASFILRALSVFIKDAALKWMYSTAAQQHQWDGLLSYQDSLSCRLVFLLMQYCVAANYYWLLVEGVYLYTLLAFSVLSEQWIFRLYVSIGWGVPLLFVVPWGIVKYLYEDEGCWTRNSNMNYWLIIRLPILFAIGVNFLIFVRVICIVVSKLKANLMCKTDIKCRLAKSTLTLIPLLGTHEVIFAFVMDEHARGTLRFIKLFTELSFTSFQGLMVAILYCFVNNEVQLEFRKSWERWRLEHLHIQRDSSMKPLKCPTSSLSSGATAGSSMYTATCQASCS

In the case of CC[C@H](C)[C@H](NC(=O)[C@H](Cc1ccccc1)NC(=O)[C@H](CCC(=O)O)NC(=O)[C@H](CCCNC(=N)N)NC(=O)[C@H](C)NC(=O)[C@H](C)NC(=O)[C@H](CCC(N)=O)NC(=O)[C@H](CCC(=O)O)NC(=O)[C@H](CCC(=O)O)NC(=O)[C@H](CC(C)C)NC(=O)[C@H](Cc1ccc(O)cc1)NC(=O)[C@H](CO)NC(=O)[C@H](CO)NC(=O)[C@@H](NC(=O)[C@H](CC(=O)O)NC(=O)[C@H](CO)NC(=O)[C@@H](NC(=O)[C@H](Cc1ccccc1)NC(=O)[C@@H](NC(=O)CNC(=O)[C@H](CCC(=O)O)NC(=O)C(C)(C)NC(=O)[C@@H](N)Cc1c[nH]cn1)[C@@H](C)O)[C@@H](C)O)C(C)C)C(=O)N[C@@H](C)C(=O)N[C@@H](Cc1c[nH]c2ccccc12)C(=O)N[C@@H](CC(C)C)C(=O)N[C@H](C(=O)N[C@@H](CCCNC(=N)N)C(=O)NCC(=O)N[C@@H](CCCNC(=N)N)C(=O)N[C@@H](CCCCNC(=O)COCCOCCNC(=O)COCCOCCNC(=O)[C@H](CCCCNC(=O)CC[C@H](NC(=O)[C@H]1CC[C@H](CNC(=O)CCCCCCCCCCCCCCCCCCC(=O)O)CC1)C(=O)O)NC(=O)CC[C@H](NC(=O)[C@H]1CC[C@H](CNC(=O)CCCCCCCCCCCCCCCCCCC(=O)O)CC1)C(=O)O)C(=O)O)C(C)C [Example 11, N{Epsilon-37}-[2-[2-[2-[[2-[2-[2-[[(2S)-2,6-bis[[(4S)-4-carboxy-4-[[4-[(19-carboxynonadecanoylamino)methyl]cyclohexanecarbonyl]amino]butanoyl]amino]hexanoyl]amino]ethoxy]ethoxy]acetyl]amino]ethoxy]ethoxy]acetyl]-[Aib8,Glu22,Arg26,Arg34,Lys37]-GLP-1-(7-37)-peptide], the IC50 [1, 4] is reported as 150 nM, the IC50 [1, 5] is reported as 1.5 nM and the EC50 [2] is reported as 0.13 nM.

In the case of CC[C@H](C)[C@H](NC(=O)[C@H](Cc1ccccc1)NC(=O)[C@H](CCC(=O)O)NC(=O)[C@H](CCCNC(=N)N)NC(=O)[C@H](C)NC(=O)[C@H](C)NC(=O)[C@H](CCC(N)=O)NC(=O)[C@H](CCC(=O)O)NC(=O)[C@H](CCC(=O)O)NC(=O)[C@H](CC(C)C)NC(=O)[C@H](Cc1ccc(O)cc1)NC(=O)[C@H](CO)NC(=O)[C@H](CO)NC(=O)[C@@H](NC(=O)[C@H](CC(=O)O)NC(=O)[C@H](CO)NC(=O)[C@@H](NC(=O)[C@H](Cc1ccccc1)NC(=O)[C@@H](NC(=O)CNC(=O)[C@H](CCC(=O)O)NC(=O)C(C)(C)NC(=O)[C@@H](N)Cc1c[nH]cn1)[C@@H](C)O)[C@@H](C)O)C(C)C)C(=O)N[C@@H](C)C(=O)N[C@@H](Cc1c[nH]c2ccccc12)C(=O)N[C@@H](CC(C)C)C(=O)N[C@H](C(=O)N[C@@H](CCCNC(=N)N)C(=O)NCC(=O)N[C@@H](CCCNC(=N)N)C(=O)N[C@@H](CCCCNC(=O)COCCOCCNC(=O)[C@H](CCCCNC(=O)COCCOCCNC(=O)COCCOCCNC(=O)CC[C@H](NC(=O)[C@H]1CC[C@H](CNC(=O)CCCCCCCCCCCCCCCCCCC(=O)O)CC1)C(=O)O)NC(=O)COCCOCCNC(=O)COCCOCCNC(=O)CC[C@H](NC(=O)[C@H]1CC[C@H](CNC(=O)CCCCCCCCCCCCCCCCCCC(=O)O)CC1)C(=O)O)C(=O)O)C(C)C [Example 1, N{Epsilon-37}-[2-[2-[2-[[(2S)-2,6-bis[[2-[2-[2-[[2-[2-[2-[[(4S)-4-carboxy-4-[[4-[(19-carboxynonadecanoylamino)methyl]cyclohexanecarbonyl]amino]butanoyl]amino]ethoxy]ethoxy]acetyl]amino]ethoxy]ethoxy]acetyl]amino]hexanoyl]amino]ethoxy]ethoxy]acetyl]-[Aib8,Glu22,Arg26,Arg34,Lys37]-GLP-1-(7-37)-peptide], the IC50 [1, 4] is reported as 140 nM and the half-life [3] is reported as 162 h.

For CC[C@H](C)[C@H](NC(=O)[C@H](Cc1ccccc1)NC(=O)[C@H](CCC(=O)O)NC(=O)[C@H](CCCNC(=N)N)NC(=O)[C@H](C)NC(=O)[C@H](C)NC(=O)[C@H](CCC(N)=O)NC(=O)[C@H](CCC(=O)O)NC(=O)[C@H](CCC(=O)O)NC(=O)[C@H](CC(C)C)NC(=O)[C@H](Cc1ccc(O)cc1)NC(=O)[C@H](CO)NC(=O)[C@H](CO)NC(=O)[C@@H](NC(=O)[C@H](CC(=O)O)NC(=O)[C@H](CO)NC(=O)[C@@H](NC(=O)[C@H](Cc1ccccc1)NC(=O)[C@@H](NC(=O)CNC(=O)[C@H](CCC(=O)O)NC(=O)C(C)(C)NC(=O)CCc1cnc[nH]1)[C@@H](C)O)[C@@H](C)O)C(C)C)C(=O)N[C@@H](C)C(=O)N[C@@H](Cc1c[nH]c2ccccc12)C(=O)N[C@@H](CC(C)C)C(=O)N[C@H](C(=O)N[C@@H](CCCNC(=N)N)C(=O)NCC(=O)N[C@@H](CCCNC(=N)N)C(=O)NCC(=O)NCC(=O)N[C@@H](CCCCNC(=O)COCCOCCNC(=O)COCCOCCNC(=O)COCCOCCNC(=O)COCCOCCNC(=O)[C@H](CCCCNC(=O)CC[C@H](NC(=O)[C@H]1CC[C@H](CNC(=O)CCCCCCCCCCCCCCCCCCC(=O)O)CC1)C(=O)O)NC(=O)CC[C@H](NC(=O)[C@H]1CC[C@H](CNC(=O)CCCCCCCCCCCCCCCCCCC(=O)O)CC1)C(=O)O)C(=O)O)C(C)C [Example 6, [Imp7,Aib8,Glu22,Arg26,Arg34]-GLP-1-(7-37)-peptidyl-Gly-N{Epsilon}[2-[2-[2-[[2-[2-[2-[[2-[2-[2-[[2-[2-[2-[[(2S)-2,6-bis[[(4S)-4-carboxy-4-[[4-[(19-carboxynonadecanoylamino)methyl]cyclohexanecarbonyl]amino]butanoyl]amino]hexanoyl]amino]ethoxy]ethoxy]acetyl]amino]ethoxy]ethoxy]acetyl]amino]ethoxy]ethoxy]acetyl]amino]ethoxy]ethoxy]acetyl]Lys] (Desaminohistidyl-[Aib]EGTFTSDVSSYLEEQAAREFIAWLVRGRGGK([AEEA-AEEA-AEEA-AEEA-X2])-OH; C-terminus assumed), the IC50 [1, 4] was 140 nM and the EC50 [2] was 0.15 nM.

Work on CC[C@H](C)[C@H](NC(=O)[C@H](Cc1ccccc1)NC(=O)[C@H](CCC(=O)O)NC(=O)[C@H](CCCNC(=N)N)NC(=O)[C@H](C)NC(=O)[C@H](C)NC(=O)[C@H](CCC(N)=O)NC(=O)[C@H](CCC(=O)O)NC(=O)[C@H](CCC(=O)O)NC(=O)[C@H](CC(C)C)NC(=O)[C@H](Cc1ccc(O)cc1)NC(=O)[C@H](CO)NC(=O)[C@H](CO)NC(=O)[C@@H](NC(=O)[C@H](CC(=O)O)NC(=O)[C@H](CO)NC(=O)[C@@H](NC(=O)[C@H](Cc1ccccc1)NC(=O)[C@@H](NC(=O)CNC(=O)[C@H](CCC(=O)O)NC(=O)C(C)(C)NC(=O)[C@@H](N)Cc1c[nH]cn1)[C@@H](C)O)[C@@H](C)O)C(C)C)C(=O)N[C@@H](C)C(=O)N[C@@H](Cc1c[nH]c2ccccc12)C(=O)N[C@@H](CC(C)C)C(=O)N[C@H](C(=O)N[C@@H](CCCNC(=N)N)C(=O)NCC(=O)N[C@@H](CCCNC(=N)N)C(=O)N[C@@H](CCCCNC(=O)COCCOCCNC(=O)COCCOCCNC(=O)COCCOCCNC(=O)COCCOCCNC(=O)[C@H](CCCCNC(=O)COCCOCCNC(=O)CC[C@H](NC(=O)[C@H]1CC[C@H](CNC(=O)CCCCCCCCCCCCCCCCCCC(=O)O)CC1)C(=O)O)NC(=O)COCCOCCNC(=O)CC[C@H](NC(=O)[C@H]1CC[C@H](CNC(=O)CCCCCCCCCCCCCCCCCCC(=O)O)CC1)C(=O)O)C(=O)O)C(C)C [Example 21, N{Epsilon-37}-[2-[2-[2-[[2-[2-[2-[[2-[2-[2-[[2-[2-[2-[[(2S)-2,6-bis[[2-[2-[2-[[(4S)-4-carboxy-4-[[4-[(19-carboxynonadecanoylamino)methyl]cyclohexanecarbonyl]amino]butanoyl]amino]ethoxy]ethoxy]acetyl]amino]hexanoyl]amino]ethoxy]ethoxy]acetyl]amino]ethoxy]ethoxy]acetyl]amino]ethoxy]ethoxy]acetyl]amino]ethoxy]ethoxy]acetyl]-[Aib8,Glu22,Arg26,Arg34,Lys37]-GLP-1-(7-37)-peptide] yielded an IC50 [1, 4] of 19 nM and an IC50 [1, 5] of 1.5 nM.
